Measurements as given in US20030217372A1, “Methods of using alpha 1b-adrenergic receptors” (priority 2002, published 2003).
Counter-ions that a name gives are not always drawn.

Experiments:
[1] = test system: WT and α1b-AR KO mice; assay: Locomotor activity in circular corridor after acute drug injection; assay type: in vivo; settings: for amplitude of locomotor response, α1b-AR KO vs WT mice: D-amphetamine 2 and 3 mg/kg, cocaine and morphine independent of dose
Method: FIG. 2 is a series of dose response graphs that depicts the results of locomotor response to novelty, saline, scopolamine and chloro-APB experiments in WT and α1b-AR KO mice. […] Animals were placed in the experimental apparatus for 90 minutes, received a saline injection and were replaced in the apparatus for 60 minutes. On the following day, animals were placed in the experimental apparatus for 90 minutes, they received an intraperitoneal injection of either saline or scopolamine (1 mg/kg) and their locomotor response was measured every 5 minutes for 60 minutes. FIG. 2D represents the results of locomotor response to chloro-APB; animals were placed in the experimental apparatus for 90 minutes, received a saline injection and were replaced in the apparatus for 60 minutes. On the following days, animals were placed in the experimental apparatus for 90 minutes, they received an intraperitoneal injection of chioro-APB and their locomotor response was measured every 5 minutes for 60 minutes. Several doses of chloro-APB were tested on consecutive days in a random order.
Independent groups of animals were used for each treatment to avoid eventual behavioral sensitization (N=6-16 per group).
(§1) Mice were introduced in a circular corridor (4.5 cm width, 17 cm external diameter) crossed by four infrared beams (1.5 cm above the base) placed at every 90° (Imetronic, Pessac, France). The locomotor activity was counted when animals interrupted two successive beams and, thus, had traveled ¼ of the circular corridor. In each session, the spontaneous activity was recorded for 90 minutes, before mice received either saline or drugs. Their activity was recorded for an additional 60 minutes or 120 minutes period. The first session was a session of habituation to the experimental procedure during which animals received saline (˜3 ml/kg, i.p.). The locomotor response to a drug administration was measured on the following day. Tests were performed between 12:00 and 6:00 p.m. in stable conditions of temperature and humidity.

[2] = test system: WT and α1b-AR KO mice; assay: Locomotor sensitization induced by repeated drug administration; assay type: in vivo
Method: Animals spent 90 minutes in the experimental apparatus, received a saline injection and were replaced in the apparatus for 60 minutes. […] Four similar sessions took place every other day. The sixth session took place after a 10-day withdrawal. Locomotor responses measured during the first hour following each injection are presented in function of the number of injections and slope values. N=6 to 15 animals per group.
N=6 to 12 animals per group. […] FIG. 6B represents the time course of the locomotor responses measured every 5 minutes.
as §1
Data were analyzed with Student's t-test or analysis of variance. For behavioral sensitization experiments, correlation between the number of drug injections and the amplitude of the locomotor responses was analyzed with linear regression and the influence of genotype on this correlation with an analysis of covariance. Genotype and prazosin treatments were between-subjects factors. […] Differences were considered significant when p<0.05.
The rate of sensitization was evaluated by determining the slope of the “number of injections/response” curve (FIG. 5).

[3] = test system: WT and α1b-AR KO mice; assay: Oral consumption, two-bottle choice paradigm; assay type: in vivo; settings: cocaine 0.2 mg/ml, morphine 0.15 mg/ml
Method: Fluid intake was measured daily by weighting bottles, mice being housed individually. Tested solutions were replaced twice weekly.
Cocaine and morphine: For two weeks, bottles were filled with cocaine or morphine solution of decreasing concentration (one dose per week; 0.3 mg/ml then 0.2 mg/ml for cocaine and 0.2 mg/ml and 0.15 mg/ml for morphine) instead of water, so that mice accustom to the bitter taste. […] Then, to determine mean water consumption and eliminate basal side preference, two bottles of water were given for three days to each animal and basal consumption was calculated as the mean consumption from one bottle on day 2 and the other on day 3. Preference for cocaine (0.2 mg/ml) or morphine (0.15 mg/ml) was then measured over two 12-day sessions, drug and water sides being exchanged between the 2 sessions. Means of drug and water consumptions were estimated for the last 5 days of both 12-day periods.
Rewarding properties of cocaine and morphine were assessed in a two-bottle choice paradigm adapted from the method described by Ferraro et al. (Ferraro et al., Pharmacol. Biochem. Behav. 66:397-401, 2000) for cocaine and Borg and Taylor (Borg et al., Biochem. Behav. 47:633-46, 1994) for morphine.

[4] = test system: WT and α1b-AR KO mice; assay: Morphine-induced conditioned place preference (Y maze); assay type: in vivo; settings: for conditioned place preference (CPP): morphine 5 mg/kg s.c.; for locomotor activity during conditioning sessions, morphine vs saline: repeated morphine 5 mg/kg s.c.
Method: FIG. 8 is a series of histograms and dose response graphs that represents the results of a conditioned place preference experiment induced by morphine in WT and α1b-AR KO mice. WT and α1b-AR KO mice were conditioned to receive morphine (5 mg/kg s.c.) in a compartment and a saline injection in the other compartment. The saline group received saline injections in both compartments. N=6 to 11 animals per group. The upper left graph show the time spent in the morphine-associated compartment before conditioning (pre-test), after four morphine injections and four saline injections (post-test 1) and after two supplementary morphine and two supplementary saline injections (post-test 2). *p<0.05 and **p<0.01 when time spent in the drug compartment was different between pretest and post-test 1 or 2 (paired Student's t-test). The upper right graph show scores that correspond to the time spent in the morphine compartment during the post-test (1 and 2) minus time spent in the morphine compartment during the pre-test. p<0.05 when scores were higher for morphine treated mice than for saline treated mice (unpaired Student's t-test). The lower left and lower right graphs show the locomotor activity measured during the 30 minutes of each of the 12 conditioning sessions corresponding either to morphine or to saline injection. ***p<0.001 locomotor activity measured during the morphine session was higher than during the corresponding saline session (paired Student's t-test).
Conditioned place preference was measured in a Y maze. Mice were habituated to the experimental apparatus (Imetronic, Pessac, France) for 3 days (1 hour of exploration of the maze with neutral cues, i.e. smooth gray walls and floor). On the following day, animals were allowed to freely explore the two compartments (with different visual and tactile cues) of the maze for 20 minutes corresponding to a pre-conditioning test. The total amount of time spent in each compartment was recorded and analyzed as previously described (Valverde et al., Psychopharmacology (Berlin) 123:119-26, 1996). For the next […] corresponding to the conditioning session, mice alternatively received morphine (5 mg/kg; s.c.) in one compartment and saline in the other compartment the following day. According to the unbiased method, morphine was equally associated to both compartments and was given either first or second, mice being confined in one compartment for the 30 minutes following each injection. One day after the end of the conditioning session, mice were submitted to a post-conditioning test identical to the test performed before conditioning, i.e. each mice being allowed to explore both compartments for 20 minutes. […] Locomotor activities were recorded with electronic cells in each conditioning session.

[5] = target: T1, α1b-ARs (Mus musculus, UniProt P97717); assay: Prazosin effect on locomotor responses to D-amphetamine, cocaine and morphine; assay type: in vivo, mice; settings: prazosin 1 mg/kg i.p. pre-treatment
T1 construct: endogenous in cells; host or cells: living adult male WT mice (129/Sv x C57BL/6J mixed background), in vivo; α1b-AR KO mice as comparison
T1 sequence (P97717 1-514): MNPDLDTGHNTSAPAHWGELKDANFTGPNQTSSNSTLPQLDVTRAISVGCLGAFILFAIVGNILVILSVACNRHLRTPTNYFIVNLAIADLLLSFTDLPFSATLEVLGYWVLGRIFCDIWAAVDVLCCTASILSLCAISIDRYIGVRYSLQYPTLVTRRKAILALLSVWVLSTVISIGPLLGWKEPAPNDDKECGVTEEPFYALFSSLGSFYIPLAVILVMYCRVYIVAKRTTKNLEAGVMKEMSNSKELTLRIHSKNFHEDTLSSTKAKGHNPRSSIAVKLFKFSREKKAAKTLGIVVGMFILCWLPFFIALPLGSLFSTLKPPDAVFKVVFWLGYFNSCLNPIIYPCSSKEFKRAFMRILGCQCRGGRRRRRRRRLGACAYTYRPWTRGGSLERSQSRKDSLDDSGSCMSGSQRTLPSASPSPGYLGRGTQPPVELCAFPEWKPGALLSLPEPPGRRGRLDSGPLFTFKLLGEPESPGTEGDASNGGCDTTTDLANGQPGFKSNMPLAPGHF
Method: Animals were placed in the experimental apparatus for 150 minutes, received two saline injections after 60 minutes and 90 minutes spent in the corridor. On the following day, animals were placed in the experimental apparatus for 60 minutes, they received an intrapenitoneal injection of either saline or prazosin (1 mg/kg) and were replaced in the corridor for 30 minutes. […] Independent groups of animals were used for each treatment to avoid eventual behavioral sensitization (N=6-12 per group).
as §1, with “In each session, the spontaneous activity was recorded for 90 minutes, before mice received either saline or drugs.” left out

[6] = test system: α1-adrenergic receptors; settings: cited from earlier work
[7] = α1b-AR KO mice, i.p., different doses

## Br.C=CCN1CCc2c(cc(O)c(O)c2Cl)C(c2ccccc2)C1 (stereo not shown) [chloro-APB, chloro-APB hydrobromide]
[1]; WT mice, chloro-APB i.p., several doses
  locomotor activity: dose-dependently increase locomotor activity
[1]; chloro-APB i.p., several doses
  amplitudes of locomotor responses, WT vs α1b-AR KO mice: No significant differences

## COC(=O)[C@H]1[C@@H](OC(=O)c2ccccc2)C[C@@H]2CC[C@H]1N2C.Cl [cocaine, cocaine hydrochloride]
[2]; KO mice, cocaine 5 mg/kg, 5 previous drug injections
  locomotor responses of drug-treated vs naive mice: no significant difference
[2]; WT mice, cocaine 5 mg/kg
  rate of sensitization: slope of the number of injections/response curve: 101.0±47.4
[2]; WT mice, cocaine 15 mg/kg
  rate of sensitization: slope of the number of injections/response curve: 198.2±48.19
[2]; α1b-AR KO mice, cocaine 5 mg/kg
  rate of sensitization: slope of the number of injections/response curve: −0.155±20.96
[2]; α1b-AR KO mice, cocaine 15 mg/kg
  rate of sensitization: slope of the number of injections/response curve: 102.8±19.37
[1]
  amplitude of locomotor response, α1b-AR KO vs WT mice: significantly altered by the genotype
[1]; WT mice, i.p., different doses
  locomotor activity: dose-dependent stimulation of locomotor activity
[1]; [7]
  locomotor activity: also increased locomotor activity
[3]; KO mice
  drug consumption vs water in two-bottle choice (rewarding properties): aversion
[3]; WT mice
  drug consumption vs water in two-bottle choice (rewarding properties): exhibited a preference

## CN1CC[C@]23c4c5ccc(O)c4O[C@H]2[C@@H](O)C=C[C@H]3[C@H]1C5 [morphine, morphine chiorhydrate]
[2]; WT mice, morphine 7.5 mg/kg
  rate of sensitization: slope of the number of injections/response curve: 146.7±51.4
[2]; α1b-AR KO mice, morphine 7.5 mg/kg
  rate of sensitization: slope of the number of injections/response curve: 38.17±19.48
[4]; KO mice
  conditioned place preference (CPP): not in KO mice
  locomotor activity during conditioning sessions, morphine vs saline: no significant difference
[4]; WT mice
  conditioned place preference (CPP): significant CPP was induced
  locomotor activity during conditioning sessions, morphine vs saline: induce a behavioral sensitization in WT
[1]
  amplitude of locomotor response, α1b-AR KO vs WT mice: significantly altered by the genotype
[1]; KO mice
  stereotyped walking behavior: induced a stereotyped walking behavior
[1]; WT mice, i.p., different doses
  locomotor activity: dose-dependent stimulation of locomotor activity
[1]; [7]
  locomotor activity: also increased locomotor activity
[3]; KO mice
  drug consumption vs water in two-bottle choice (rewarding properties): aversion

## COc1cc2nc(N3CCN(C(=O)c4ccco4)CC3)nc(N)c2cc1OC [prazosin]
[5]; WT mice, D-amphetamine 3 mg/kg
  effect on locomotor response to D-amphetamine: significantly reduced
[5]; WT mice, cocaine 20 mg/kg
  effect on locomotor response to cocaine: significantly reduced
[5]; WT mice, morphine 10 mg/kg
  effect on locomotor response to morphine: significantly reduced
[5]; α1b-AR KO mice
  effect on locomotor responses to D-amphetamine, cocaine and morphine: failed to modify
[6]; background statement
  behavioral sensitization with prazosin co-administered with repeated cocaine or D-amphetamine injections: no behavioral sensitization is observed
  locomotor hyperactivity induced by D-amphetamine, cocaine, GBR12783 and morphine: completely inhibits
[6]; rats, Darracq et al. 1998
  D-amphetamine-induced locomotor hyperactivity and extracellular DA responses in the nucleus accumbens: inhibits D-amphetamine-induced locomotor hyperactivity without modifying extracellular DA responses

## CN1[C@@H]2C[C@@H](OC(=O)[C@H](CO)c3ccccc3)C[C@H]1[C@@H]1O[C@@H]12 [scopolamine, scopolamine hydrobromide]
[1]; scopolamine 1 mg/kg i.p., 60 minutes
  stimulatory effect on locomotor activity, WT vs α1b-AR KO mice: equivalent
